Laboratory results published in patent US20090215822A1, “Substituted Oxadiazole Derivatives as Positive Allosteric Modulators of Metabotropic Glutamate Receptors” (NIKEM RESEARCH SRL, priority 2005, published 2009).

Legend:
[1] = target: T1, rat mGluR5 receptor (Rattus norvegicus, UniProt P31424); assay: mGluR5 assay on HEK-expressing rat mGluR5 (fluorescent cell based Ca2+ mobilization assay); details: HEK-293 cells stably expressing rat mGluR5; no co-addition of glutamate; mean of at least three independent experiments in duplicate; read-out: Ca++ Flux (mean EC50)
T1 construct: expressed in transfected cells
T1 sequence (P31424 21-1171 isoform P31424-2 limits assumed): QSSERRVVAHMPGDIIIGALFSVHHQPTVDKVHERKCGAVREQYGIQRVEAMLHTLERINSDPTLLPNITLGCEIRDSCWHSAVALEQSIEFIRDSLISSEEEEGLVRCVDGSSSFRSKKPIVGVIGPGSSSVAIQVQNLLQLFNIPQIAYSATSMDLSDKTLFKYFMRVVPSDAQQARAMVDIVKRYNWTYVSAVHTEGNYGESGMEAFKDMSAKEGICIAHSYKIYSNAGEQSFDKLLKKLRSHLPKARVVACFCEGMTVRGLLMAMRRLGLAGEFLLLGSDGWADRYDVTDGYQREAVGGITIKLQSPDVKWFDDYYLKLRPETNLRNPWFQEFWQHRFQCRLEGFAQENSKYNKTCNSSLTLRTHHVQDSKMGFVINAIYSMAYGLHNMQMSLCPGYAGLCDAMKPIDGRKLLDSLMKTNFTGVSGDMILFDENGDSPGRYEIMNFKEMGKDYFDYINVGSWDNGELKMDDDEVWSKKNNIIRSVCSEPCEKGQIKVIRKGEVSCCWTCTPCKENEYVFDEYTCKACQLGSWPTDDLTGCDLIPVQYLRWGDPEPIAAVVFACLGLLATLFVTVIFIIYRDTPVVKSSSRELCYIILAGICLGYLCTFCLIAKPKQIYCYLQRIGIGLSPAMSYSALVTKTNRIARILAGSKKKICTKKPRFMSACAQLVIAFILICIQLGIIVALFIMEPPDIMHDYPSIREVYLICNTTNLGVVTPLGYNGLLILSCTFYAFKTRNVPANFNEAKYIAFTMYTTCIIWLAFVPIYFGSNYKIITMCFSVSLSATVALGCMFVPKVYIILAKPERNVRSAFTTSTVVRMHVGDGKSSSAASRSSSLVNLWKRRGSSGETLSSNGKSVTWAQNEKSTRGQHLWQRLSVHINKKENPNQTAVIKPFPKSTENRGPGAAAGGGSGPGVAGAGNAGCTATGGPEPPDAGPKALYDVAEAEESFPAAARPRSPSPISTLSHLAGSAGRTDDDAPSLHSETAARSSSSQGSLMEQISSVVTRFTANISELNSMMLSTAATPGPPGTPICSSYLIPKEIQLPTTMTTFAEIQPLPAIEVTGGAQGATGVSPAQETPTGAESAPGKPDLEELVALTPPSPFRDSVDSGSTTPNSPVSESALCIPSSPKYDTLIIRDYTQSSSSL
Experimental: Positive functional expression of HEK-293 cells stably expressing rat mGluR5 receptor was determined by measuring intracellular Ca^2+ changes using a Fluorometric Imaging Plate Reader (FLIPR, Molecular Devices, Sunnyvale, Calif.) in response to glutamate or selective known mGluR5 agonists and antagonists. Rat mGluR5 RT-PCR products in HEK-293 cells were sequenced and found 100% identical to rat mGluR5 Genbank reference sequence (NM_017012). HEK-293 cells expressing rmGluR5 were maintained in media containing DMEM, dialyzed Fetal Bovine Serum (10%), Glutamax™ (2 mM), Penicillin (100 units/ml), Streptomycin (100 μg/ml), Geneticin (100 μg/ml) and Hygromycin-B (40 μg/ml) at 37° C./5% CO2.
After one day of incubation, cells were washed with assay buffer containing: 142 mM NaCl, 6 mM KCl, 1 mM Mg2SO4, 1 mM CaCl2, 20 mM HEPES, 1 g/L glucose, 0.125 mM sulfinpyrazone, pH 7.4. After 60 min of loading with 4 uM Fluo-4 (TefLabs, Austin, Tex.), the cells were washed three times with 50 μl of PBS Buffer and resuspended in […] of assay Buffer. The plates were then transferred to a Fluorometric Imaging Plate Reader (FLIPR, Molecular Devices, Sunnyvale, Calif.) for the assessment of intracellular calcium flux. After monitoring the baseline fluorescence for 10 seconds, increasing concentrations of representative compound (from 0.01 to 60 μM) of the present invention diluted in Assay Buffer (15 μl of 4× dilutions) was added to the cell. The final DMSO concentration in the assay was 0.3%. In each experiment, fluorescence was then monitored as a function of time for 3 minutes and the data analyzed using Microsoft Excel and GraphPad Prism. Each data point was also measured two times.
Under these experimental conditions, this HEK-rat mGluR5 cell line is able to directly detect positive allosteric modulators without the need of co-addition of glutamate or mGluR5 agonist.
The concentration-response curves of representative compounds of the present invention were generated using the Prism GraphPad software (Graph Pad Inc, San Diego, USA). The curves were fitted to a four-parameter logistic equation:
(Y=Bottom+(Top-Bottom)/(1+10̂((Log EC50−X)*Hill Slope)
allowing determination of EC50 values.
The Table 1 below represents the mean EC50 obtained from at least three independent experiments of selected molecules performed in duplicate.

Question: With `Cc1oncc1C(=O)N1CCCC(c2noc(-c3ccccc3F)n2)C1` (stereo not shown) [Example 7, {3-[5-(2-Fluoro-phenyl)-[1,2,4]oxadiazol-3-yl]-piperidin-1-yl}-(5-methyl-isoxazol-4-yl)-methanone] as the compound, how does the EC50 [1] read?
Answer: < 1000 nM

Question: With `O=C(c1ccc(F)c(F)c1)N1CCCC(c2noc(-c3ccccc3)n2)C1` (stereo not shown) [Example 32, (3,4-Difluoro-phenyl)-[3-(5-phenyl-[1,2,4]oxadiazol-3-yl)-piperidin-1-yl]-methanone] as the compound, how does the melting point read?
Answer: 116 to 118 °C

Question: And the EC50 [1]?
Answer: < 1000 nM

Question: With `O=C(c1ccc(F)c(F)c1)N1CCCC(c2noc(-c3ccccc3F)n2)C1` (stereo not shown) [Example 3, (3,4-Difluoro-phenyl)-{3-[5-(2-fluoro-phenyl)-[1,2,4]oxadiazol-3-yl]-piperidin-1-yl}-methanone] as the compound, how does the melting point read?
Answer: 80 to 83 °C

Question: What about the EC50 [1] of the same compound?
Answer: < 1000 nM

Question: For `O=C(c1ccc(F)cc1)N1CCC[C@H](c2noc(-c3ccncc3F)n2)C1` [Example 49, (4-Fluoro-phenyl)-{(S)-3-[5-(3-fluoro-pyridin-4-yl)-[1,2,4]oxadiazol-3-yl]-piperidin-1-yl}-methanone], which EC50 [1] is on record?
Answer: 1000 to 10000 nM

Question: Which melting point does the source give for `O=C(c1ccc(F)nc1)N1CCCC(c2noc(-c3cscn3)n2)C1` (stereo not shown) [Example 30, (6-Fluoro-pyridin-3-yl)-[3-(5-thiazol-4-yl-[1,2,4]oxadiazol-3-yl)-piperidin-1-yl]-methanone] here?
Answer: 90 °C

Question: What about the EC50 [1] of the same compound?
Answer: > 10000 nM

Question: Which EC50 [1] does the source give for `O=C(c1ccc(F)c(F)c1)N1CCC[C@H](c2noc(-c3ccncc3F)n2)C1` [Example 50, (3,4-Difluoro-phenyl)-{(S)-3-[5-(3-fluoro-pyridin-4-yl)-[1,2,4]oxadiazol-3-yl]-piperidin-1-yl}-methanone] here?
Answer: 1000 to 10000 nM

Question: With `Cc1cc(F)ccc1C(=O)N1CCCC(c2noc(-c3ccccc3)n2)C1` (stereo not shown) [Example 34, (4-Fluoro-2-methyl-phenyl)-[3-(5-phenyl-[1,2,4]oxadiazol-3-yl)-piperidin-1-yl]-methanone] as the compound, how does the EC50 [1] read?
Answer: 1000 to 10000 nM

Question: Which EC50 [1] does the source give for `O=C(c1cc(F)ccc1F)N1CCC[C@H](c2noc(-c3ccccn3)n2)C1` [Example 54, (2,5-Difluoro-phenyl)-[(S)-3-(5-pyridin-2-yl-[1,2,4]oxadiazol-3-yl)-piperidin-1-yl]-methanone] here?
Answer: < 1000 nM

Question: For `Cc1noc(C)c1C(=O)N1CCC[C@H](c2noc(-c3ccc(F)cc3)n2)C1` [Example 38, (3,5-Dimethyl-isoxazol-4-yl)-{(S)-3-[5-(4-fluoro-phenyl)-[1,2,4]oxadiazol-3-yl]-piperidin-1-yl}-methanone], which melting point is on record?
Answer: 85 °C

Question: And the EC50 [1]?
Answer: < 1000 nM

Question: For `O=C(c1ccc(F)c(F)c1)N1CCC[C@H](c2noc(-c3ccc(F)cn3)n2)C1` [Example 45, (S)-(3,4-difluorophenyl)-{3-[5-(5-fluoropyridin-2-yl)-[1,2,4]oxadiazol-3-yl]-piperidin-1-yl}-methanone], which EC50 [1] is on record?
Answer: < 1000 nM

Question: Which melting point does the source give for `O=C(c1ccc(F)cc1F)N1CCCC(c2noc(-c3ccccc3)n2)C1` (stereo not shown) [Example 33, (2,4-Difluoro-phenyl)-[3-(5-phenyl-[1,2,4]oxadiazol-3-yl)-piperidin-1-yl]-methanone] here?
Answer: 116 to 117 °C

Question: What about the EC50 [1] of the same compound?
Answer: < 1000 nM

Question: What does the source list for `O=C(c1ccc(F)nc1)N1CCCC(c2noc(-c3ccc(F)cc3)n2)C1` (stereo not shown) [Example 9, {3-[5-(4-Fluoro-phenyl)-[1,2,4]oxadiazol-3-yl]-piperidin-1-yl}-(6-fluoro-pyridin-3-yl)-methanone]?
Answer: melting point: 131 to 134 °C; EC50 [1]: < 1000 nM

Question: For `O=C(c1ccc(F)cc1)N1CCCC(c2noc(-c3ccccc3)n2)C1` (stereo not shown) [Example 26, (4-Fluoro-phenyl)-[3-(5-phenyl-[1,2,4]oxadiazol-3-yl)-piperidin-1-yl]-methanone], which EC50 [1] is on record?
Answer: < 1000 nM

Question: For `Cc1cc(F)ccc1C(=O)N1CCCC(c2noc(-c3ccncc3)n2)C1` (stereo not shown) [Example 22, (4-Fluoro-2-methyl-phenyl)-[3-(5-pyridin-4-yl-[1,2,4]oxadiazol-3-yl)-piperidin-1-yl]-methanone], which EC50 [1] is on record?
Answer: 1000 to 10000 nM

Question: Which melting point does the source give for `O=C(c1ccc(F)c(F)c1)N1CCCC(c2noc(-c3ccncc3)n2)C1` (stereo not shown) [Example 15, (3,4-Difluoro-phenyl)-[3-(5-pyridin-4-yl-[1,2,4]oxadiazol-3-yl)-piperidin-1-yl]-methanone] here?
Answer: 132 to 134 °C

Question: What about the EC50 [1] of the same compound?
Answer: < 1000 nM

Question: For `O=C(c1ccc(F)cc1F)N1CCCC(c2noc(-c3ccc(F)cc3F)n2)C1` (stereo not shown) [Example 19, (2,4-Difluoro-phenyl)-{3-[5-(2,4-difluoro-phenyl)-[1,2,4]oxadiazol-3-yl]-piperidin-1-yl}-methanone], which melting point is on record?
Answer: 101 °C

Question: And the EC50 [1]?
Answer: 1000 to 10000 nM

Question: For `Cc1oncc1C(=O)N1CCCC(c2noc(-c3ccc(F)cc3F)n2)C1` (stereo not shown) [Example 24, {3-[5-(2,4-Difluoro-phenyl)-[1,2,4]oxadiazol-3-yl]-piperidin-1-yl}-(5-methyl-isoxazol-4-yl)-methanone], which melting point is on record?
Answer: 79 °C

Question: What about the EC50 [1] of the same compound?
Answer: 1000 to 10000 nM

Question: For `O=C(c1ccc(F)cc1)N1CCC[C@H](c2noc(-c3ccccn3)n2)C1` [Example 46, (S)-(4-fluorophenyl)-{3-[5-(pyridin-2-yl)-[1,2,4]oxadiazol-3-yl]-piperidin-1-yl}-methanone], which EC50 [1] is on record?
Answer: 1000 to 10000 nM

Question: With `O=C(c1ccc(F)c(F)c1)N1CCC[C@H](c2noc(-c3ccccn3)n2)C1` [Example 47, (S)-(3,4-Difluorophenyl)-{3-[5-(pyridin-2-yl)-[1,2,4]oxadiazol-3-yl]-piperidin-1-yl}-methanone] as the compound, how does the EC50 [1] read?
Answer: < 1000 nM

Question: For `Cn1cnc(-c2nc([C@H]3CCCN(C(=O)c4ccc(F)cc4)C3)no2)c1` [Example 48, (4-Fluoro-phenyl)-{(S)-3-[5-(1-methyl-1H-imidazol-4-yl)-[1,2,4]oxadiazol-3-yl]-piperidin-1-yl}-methanone], which EC50 [1] is on record?
Answer: > 10000 nM

Question: Which EC50 [1] does the source give for `O=C(c1ccc(F)c(F)c1F)N1CCC[C@H](c2noc(-c3ccccn3)n2)C1` [Example 52, [(S)-3-(5-Pyridin-2-yl-[1,2,4]oxadiazol-3-yl)-piperidin-1-yl]-(2,3,4-trifluoro-phenyl)-methanone] here?
Answer: < 1000 nM

Question: With `O=C(c1ccc(F)cc1)N1CCCC(c2noc(C3CCCC3)n2)C1` (stereo not shown) [Example 35, (4-Fluoro-phenyl)-[3-(5-cyclopentyl-[1,2,4]oxadiazol-3-yl)-piperidin-1-yl]-methanone] as the compound, how does the EC50 [1] read?
Answer: 1000 to 10000 nM

Question: Which EC50 [1] does the source give for `O=C(c1c(F)cccc1F)N1CCC[C@H](c2noc(-c3ccccn3)n2)C1` [Example 53, (2,6-Difluoro-phenyl)-[(S)-3-(5-pyridin-2-yl-[1,2,4]oxadiazol-3-yl)-piperidin-1-yl]-methanone] here?
Answer: 1000 to 10000 nM

Question: Which EC50 [1] does the source give for `O=C(c1cccc(F)c1F)N1CCC[C@H](c2noc(-c3ccccn3)n2)C1` [Example 55, (2,3-Difluoro-phenyl)-[(S)-3-(5-pyridin-2-yl-[1,2,4]oxadiazol-3-yl)-piperidin-1-yl]-methanone] here?
Answer: 1000 to 10000 nM

Question: Which EC50 [1] does the source give for `O=C(c1ccncc1F)N1CCC[C@H](c2noc(-c3ccc(F)cc3)n2)C1` [Example 41, {(S)-3-[5-(4-Fluoro-phenyl)-[1,2,4]oxadiazol-3-yl]-piperidin-1-yl}-(3-fluoro-pyridin-4-yl)-methanone] here?
Answer: < 1000 nM

Question: With `O=C(c1c(F)cc(F)cc1F)N1CCC[C@H](c2noc(-c3ccccn3)n2)C1` [Example 51, [(S)-3-(5-Pyridin-2-yl-[1,2,4]oxadiazol-3-yl)-piperidin-1-yl]-(2,4,6-trifluoro-phenyl)-methanone] as the compound, how does the EC50 [1] read?
Answer: < 1000 nM

Question: For `O=C(c1ccc(F)cc1F)N1CCCC(c2noc(-c3ccccc3F)n2)C1` (stereo not shown) [Example 4, (2,4-Difluoro-phenyl)-{3-[5-(2-fluoro-phenyl)-[1,2,4]oxadiazol-3-yl]-piperidin-1-yl}-methanone], which EC50 [1] is on record?
Answer: < 1000 nM

Question: With `Cc1oncc1C(=O)N1CCCC(c2noc(-c3ccncc3)n2)C1` (stereo not shown) [Example 20, (5-Methyl-isoxazol-4-yl)-[3-(5-pyridin-4-yl-[1,2,4]oxadiazol-3-yl)-piperidin-1-yl]-methanone] as the compound, how does the EC50 [1] read?
Answer: > 10000 nM

Question: Which EC50 [1] does the source give for `CNc1cc(F)ccc1C(=O)N1CCCC(c2noc(-c3ccccc3F)n2)C1` (stereo not shown) [Example 5, (4-Fluoro-2-methylamino-phenyl)-{3-[5-(2-fluoro-phenyl)-[1,2,4]oxadiazol-3-yl]-piperidin-1-yl}-methanone] here?
Answer: 1000 to 10000 nM

Question: With `O=C(c1cncc(F)c1)N1CCC[C@H](c2noc(-c3ccc(F)cc3)n2)C1` [Example 43, {(S)-3-[5-(4-Fluoro-phenyl)-[1,2,4]oxadiazol-3-yl]-piperidin-1-yl}-(5-fluoro-pyridin-3-yl)-methanone] as the compound, how does the EC50 [1] read?
Answer: 1000 to 10000 nM

Question: With `Cc1cc(F)ccc1C(=O)N1CCCC(c2noc(-c3ccccc3F)n2)C1` (stereo not shown) [Example 23, (4-Fluoro-2-methyl-phenyl)-{3-[5-(2-fluoro-phenyl)-[1,2,4]oxadiazol-3-yl]-piperidin-1-yl}-methanone] as the compound, how does the EC50 [1] read?
Answer: 1000 to 10000 nM
